Results taken from patent publication US7034036B2, “Inhibitors of ABC drug transporters at the blood-brain barrier” (Pain Therapeutics, Inc., priority 2000, dated 2006).
Entries after “also recorded” stand apart in the source; their conditions may differ.

Legend:
PGP1a [1] = biological target: PGP1a (Homo sapiens, UniProt P08183); test: Biological activity of exemplary compounds (Activity 1 high affinity site, Activity 2 low affinity site); conditions: for Activity 2: high capacity, low affinity binding site; for Activity 1: low capacity, high affinity binding site
PGP1a [2] = test: Vanadate-sensitive PGP ATPase activity in PGP membranes; assay type: biochemical; conditions: for Inhibition of the ATPase associated with PGP1a: semi-quantitative assay
Protocol: The test substances were incubated in the membranes and supplemented with MgATP, with and without sodium orthovanadate present. Orthovanadate inhibits PGP by trapping MgADP in the nucleotide binding site. Thus, the ATPase activity measured in the presence of orthovanadate represents non-PGP ATPase activity and was subtracted from the activity generated without orthovanadate to yield vanadate-sensitive ATPase activity.
ATPase assays were conducted in 96-well microtiter plates. A 0.06 ml reaction mixture containing 40 μg PGP membranes, test substance, and 4 mM MgATP, in buffer containing 50 mM Tris-MES, 2 mM EGTA, 50 mM KCl, 2 mM dithiothreitol, and 5 mM sodium azide, plus organic solvent was incubated at 37° C. for 20 minutes. […] Identical reaction mixtures containing 100 μM sodium orthovanadate were assayed in parallel. The reactions were stopped by the addition of 30 μl of 10% SDS+Antifoam A. The incubations were followed with addition of 200 μl of 35 mM Ammonium Molybdate in 15 mM Zinc Acetate:10% Ascorbic Acid (1:4) and incubated for an additional 20 minutes at 37° C. Additionally, 0.06 ml aliquots of potassium phosphate standards prepared in the buffer described above, were incubated in the plates containing the test and control substances, with SDS and detection reagent added. The liberation of inorganic phosphate was detected by its absorbance at 800 nm and quantitated by comparing the absorbance to a phosphate standard curve. The concentration dependence of the PGP was analyzed for evidence of saturation of PGP-ATPase activity, and apparent kinetic parameters were calculated by non-linear regression.

human PGP = human PGP (Homo sapiens, UniProt P08183); test: Inhibition of PGP-mediated [3H]-digoxin transport in LLC-PK1 cell monolayers expressing human PGP cDNA (15B-J); conditions: for % Inhibition of Digoxin Transport: 5 μM [3H]-digoxin, 90 min
mice [3] = test: Tolerance to oxycodone in mice, parallel experiments; assay type: in vivo
mice [4] = test: Tail flick anti-nociception, naltrexone begun at day 6 in mice dosed daily with morphine (Groups A, B); assay type: in vivo; conditions: for Adaptation to repeated dosing (tail flick latency, words): Group 1, morphine 3 mg/kg daily alone
Protocol: 40 male mice were randomized into 5 groups of eight. All mice were administered single 3 mg/kg morphine daily (b.i.d.), beginning on Day 1.
In a second series of experiments, 40 female mice were randomized into 5 groups of eight. All mice were administered single 3 mg/kg morphine daily (b.i.d.), beginning on Day 1.
3 mg/kg of morphine was administered as a single bolus dose to each mouse on group 1 on a daily basis. Mice in Group 2 were also administered 3 mg/kg morphine daily.

mice [5] = test: Tail flick anti-nociception, naltrexone given with morphine from day 1 (Groups C, D, combined analysis); assay type: in vivo; set-up: Enhancement of Latency (tail flick) / Enhancement of Latency by Naltrexone (tail flick): unit not given here; conditions: Group 1: morphine 3 mg/kg only
Protocol: In a third series of experiments, 40 male mice were randomized into 5 groups of eight. All mice were administered single 3 mg/kg morphine daily (b.i.d.), beginning on Day 1.
In a final series of experiments, 40 female mice were randomized into 5 groups of eight. All mice were administered single 3 mg/kg morphine daily (b.i.d.), beginning on Day 1.

[6] = male mice, 0.1 mg/kg oxycodone plus 1 ng/kg naltrexone, 1 ng/kg nalmefene or 1 pg/kg nor-BNI

Sequence of human PGP (P08183 whole entry): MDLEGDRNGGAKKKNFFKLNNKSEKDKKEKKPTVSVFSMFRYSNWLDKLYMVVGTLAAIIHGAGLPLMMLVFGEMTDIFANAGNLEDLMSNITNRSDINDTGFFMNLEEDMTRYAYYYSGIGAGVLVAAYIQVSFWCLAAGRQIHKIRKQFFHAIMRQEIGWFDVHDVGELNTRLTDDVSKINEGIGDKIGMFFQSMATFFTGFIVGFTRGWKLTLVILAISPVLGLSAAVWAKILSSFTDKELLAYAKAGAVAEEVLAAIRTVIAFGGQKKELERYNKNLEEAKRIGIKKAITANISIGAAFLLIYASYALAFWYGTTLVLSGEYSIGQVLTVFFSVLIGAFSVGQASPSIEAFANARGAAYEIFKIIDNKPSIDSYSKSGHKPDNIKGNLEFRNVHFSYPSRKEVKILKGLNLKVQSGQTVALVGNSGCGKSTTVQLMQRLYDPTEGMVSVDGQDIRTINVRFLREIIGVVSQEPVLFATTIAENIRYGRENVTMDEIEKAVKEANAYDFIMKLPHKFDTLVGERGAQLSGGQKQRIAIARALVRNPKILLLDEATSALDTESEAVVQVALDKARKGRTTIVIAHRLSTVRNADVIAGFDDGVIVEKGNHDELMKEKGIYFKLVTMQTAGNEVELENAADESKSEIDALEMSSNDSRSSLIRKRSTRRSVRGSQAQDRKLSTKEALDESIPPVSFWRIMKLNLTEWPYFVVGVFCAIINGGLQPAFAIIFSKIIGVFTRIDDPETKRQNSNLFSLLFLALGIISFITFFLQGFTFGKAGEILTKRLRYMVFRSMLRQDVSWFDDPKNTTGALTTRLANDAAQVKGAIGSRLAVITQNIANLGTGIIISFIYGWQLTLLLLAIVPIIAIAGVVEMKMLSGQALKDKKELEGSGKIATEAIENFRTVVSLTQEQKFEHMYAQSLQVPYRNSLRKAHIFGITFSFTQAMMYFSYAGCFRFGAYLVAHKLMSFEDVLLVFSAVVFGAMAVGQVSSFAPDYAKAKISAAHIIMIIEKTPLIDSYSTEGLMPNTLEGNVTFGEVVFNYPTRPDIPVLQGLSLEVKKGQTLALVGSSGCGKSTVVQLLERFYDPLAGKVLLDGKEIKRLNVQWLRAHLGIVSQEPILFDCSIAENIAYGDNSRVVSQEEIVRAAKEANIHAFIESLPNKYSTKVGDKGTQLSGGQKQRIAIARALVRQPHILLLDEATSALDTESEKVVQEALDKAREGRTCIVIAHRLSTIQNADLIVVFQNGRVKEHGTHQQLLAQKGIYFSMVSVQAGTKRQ
Sequence of PGP1a (Homo sapiens, UniProt P08183) (P08183 whole entry): as above

Oc1ccc2c3c1O[C@H]1[C@H](O)CC[C@@]4(O)[C@@H](C2)N(CC2CC2)CC[C@]314 [6-β-Naltrexol, 6-β-naltrexol]
Activity 2 (PGP1a [1]): 100 µM
Activity 1 (PGP1a [1]): 0.1 nM

C=C1CC[C@@]2(O)[C@H]3Cc4ccc(O)c5c4[C@@]2(CCN3CC2CC2)[C@H]1O5 [Nalmefene, nalmefene]
Vanadate-sensitive ATPase Activity (PGP1a [2]; 30 μM): 2.3 nmol/mg/min
Vanadate-sensitive ATPase Activity (PGP1a [2]; 100 μM): 3.2 nmol/mg/min
Inhibition of the ATPase associated with PGP1a (PGP1a [2]): shown to inhibit
% Inhibition of Digoxin Transport (human PGP; 0.0001 μM test substance): 5.2%
% Inhibition of Digoxin Transport (human PGP; 0.0003 μM test substance): 7.2%
% Inhibition of Digoxin Transport (human PGP; 0.001 μM test substance): 2.8%
% Inhibition of Digoxin Transport (human PGP; 0.003 μM test substance): 5.1%
% Inhibition of Digoxin Transport (human PGP; 0.01 μM test substance): 3.9%
% Inhibition of Digoxin Transport (human PGP; 0.03 μM test substance): −7.2%
% Inhibition of Digoxin Transport (human PGP; 0.1 μM test substance): −0.3%
% Inhibition of Digoxin Transport (human PGP; 0.3 μM test substance): −5.6%
% Inhibition of Digoxin Transport (human PGP; 1 μM test substance): −2.6%
Inhibition of digoxin transport (human PGP; increasing concentration between 3 and 100 μM): increasingly inhibited
Development of tolerance to oxycodone (mice [3]; [6]): did not develop tolerance
Activity 2 (PGP1a [1]): 100 µM
Activity 1 (PGP1a [1]): 0.3 nM

C=CCN1CC[C@]23c4c5ccc(O)c4O[C@H]2C(=O)CC[C@@]3(O)[C@H]1C5 [Naloxone, naloxone]
Vanadate-sensitive ATPase Activity (PGP1a [2]; 1 μM): 0.4 nmol/mg/min
Vanadate-sensitive ATPase Activity (PGP1a [2]; 3 μM): 1.7 nmol/mg/min
Vanadate-sensitive ATPase Activity (PGP1a [2]; 10 μM): 2 nmol/mg/min
Vanadate-sensitive ATPase Activity (PGP1a [2]; 30 μM): 1.9 nmol/mg/min
Vanadate-sensitive ATPase Activity (PGP1a [2]; 100 μM): 1.8 nmol/mg/min
Inhibition of the ATPase associated with PGP1a (PGP1a [2]): shown to inhibit; also recorded: only weakly inhibited
Ketoconazole Normalized % Inhibition of Digoxin Transport (human PGP; 0.0001 μM nominal, normalized to 25 μM ketoconazole): 6.2%
Ketoconazole Normalized % Inhibition of Digoxin Transport (human PGP; 0.0003 μM nominal, normalized to 25 μM ketoconazole): 8.4%
Ketoconazole Normalized % Inhibition of Digoxin Transport (human PGP; 0.001 μM nominal, normalized to 25 μM ketoconazole): 10%
Ketoconazole Normalized % Inhibition of Digoxin Transport (human PGP; 0.01 μM nominal, normalized to 25 μM ketoconazole): −4.5%
Ketoconazole Normalized % Inhibition of Digoxin Transport (human PGP; 0.03 μM nominal, normalized to 25 μM ketoconazole): 5.7%
Ketoconazole Normalized % Inhibition of Digoxin Transport (human PGP; 0.1 μM nominal, normalized to 25 μM ketoconazole): −2.7%
Ketoconazole Normalized % Inhibition of Digoxin Transport (human PGP; 1 μM nominal, normalized to 25 μM ketoconazole): 7.8%
Inhibition of digoxin transport (human PGP; at the 30 and 100 μM concentrations): exhibited inhibitory behavior
Inhibition of digoxin transport (human PGP; concentrations below 30 μM, not concentration-dependent): slightly inhibited
Ketoconazole Normalized % Inhibition of Digoxin Transport (human PGP; nominal 0.03 μM as printed in the fourth line (measured […])): 5.7%
Activity 2 (PGP1a [1]): 30 µM
Activity 1 (PGP1a [1]): 1.0 nM

CN1CC[C@]23c4c5ccc(O)c4O[C@H]2[C@@H](O)C=C[C@H]3[C@H]1C5 [morphine]
Tolerance (mice [4]; 3 mg/kg daily, by Day 5): showed distinct tolerance
Adaptation to repeated dosing (tail flick latency, words) (mice [4]; female mice, especially from day five onwards): show an adaptation to morphine
Adaptation to repeated dosing (tail flick latency, words) (mice [4]; male mice): showed adaptation
Enhancement of Latency (tail flick) (mice [5]; Table 15, combined analysis (title prints Female Mice), Day 1): 7.4
Enhancement of Latency (tail flick) (mice [5]; Table 15, combined analysis (title prints Female Mice), Day 3): 3.0
Enhancement of Latency (tail flick) (mice [5]; Table 15, combined analysis (title prints Female Mice), Day 5): −1.2
Enhancement of Latency (tail flick) (mice [5]; Table 15, combined analysis (title prints Female Mice), Day 8): −3.7
Enhancement of Latency (tail flick) (mice [5]; Table 15, combined analysis (title prints Female Mice), Day 10): −3.3
Enhancement of Latency (tail flick) (mice [5]; female mice, Day 1): 5.4
Enhancement of Latency (tail flick) (mice [5]; female mice, Day 3): −0.1
Enhancement of Latency (tail flick) (mice [5]; female mice, Day 5): −4.1
Enhancement of Latency (tail flick) (mice [5]; female mice, Day 7): −5.0
Enhancement of Latency (tail flick) (mice [5]; female mice, Day 10): −3.3
Enhancement of Latency (tail flick) (mice [5]; female mice, Day 11, single bolus 10 μg/kg naltrexone to every mouse): −5.2
Enhancement of Latency (tail flick) (mice [5]; male mice, Day 1): 9.3
Enhancement of Latency (tail flick) (mice [5]; male mice, Day 3): 6.2
Enhancement of Latency (tail flick) (mice [5]; male mice, Day 5): 1.6
Enhancement of Latency (tail flick) (mice [5]; male mice, Day 8): −2.3
Enhancement of Latency (tail flick) (mice [5]; male mice, Day 10): −3.3
Enhancement of Latency (tail flick) (mice [5]; male mice, Day 12, single bolus 10 μg/kg naltrexone to every mouse): −4.3

Oc1ccc2c3c1O[C@H]1c4[nH]c5c(c4C[C@@]4(O)[C@@H](C2)N(CC2CC2)CC[C@]314)C[C@@]1(O)[C@H]2Cc3ccc(O)c4c3[C@@]1(CCN2CC1CC1)[C@H]5O4 [nor-BNI, nor-binaltorphimine]
Development of tolerance to oxycodone (mice [3]; female mice, 1 or 5 mg/kg oxycodone with 1 pg/kg, 1 ng/kg or 1 μg/kg naltrexone or 1 pg/kg nor-BNI): None of the mice developed tolerance
Development of tolerance to oxycodone (mice [3]; [6]): did not develop tolerance
